# How the values were obtained:
# PgP = details: cited from earlier work
# PSAM^4-5HT3 [1] = target: T1, PSAM^4-5HT3 (Homo sapiens, UniProt P36544, L131G/Q139L/Y217F, form not given, species not given); assay: Membrane potential; assay type: cell-based; details: endogenous ligands
# [2] = target: α7^L131G,Q139L,Y217F-GlyR (Homo sapiens, UniProt P23415+P36544, L131G/Q139L/Y217F); assay: Electrophysiological recordings from HEK-293 cells expressing PSAM4-GlyR; assay type: cell-based
# [3] = target: α7^L131G,Q139L,Y217F-GlyR (PSAM^4-GlyR) (Homo sapiens, UniProt P36544, L131G/Q139L/Y217F); assay: Membrane potential; assay type: cell-based
# Sequence of α7^L131G,Q139L,Y217F-GlyR (PSAM^4-GlyR) (P36544 23-229 L131G/Q139L/Y217F): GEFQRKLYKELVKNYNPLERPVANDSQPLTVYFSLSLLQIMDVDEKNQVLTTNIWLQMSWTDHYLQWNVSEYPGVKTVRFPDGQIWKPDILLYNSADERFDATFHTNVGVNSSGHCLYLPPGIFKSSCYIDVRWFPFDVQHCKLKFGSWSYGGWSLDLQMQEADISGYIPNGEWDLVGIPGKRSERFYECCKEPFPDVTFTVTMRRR
# Sequence of α7^L131G,Q139L,Y217F-GlyR (PSAM^4-GlyR) (P23415 248-457 partner): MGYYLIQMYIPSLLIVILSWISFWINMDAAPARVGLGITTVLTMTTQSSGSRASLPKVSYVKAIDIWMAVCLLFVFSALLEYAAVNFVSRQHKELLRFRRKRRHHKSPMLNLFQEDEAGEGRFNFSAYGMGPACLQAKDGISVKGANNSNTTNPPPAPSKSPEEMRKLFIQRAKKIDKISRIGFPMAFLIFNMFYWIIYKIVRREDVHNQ
# α7 nAChR = α7 nAChR (Homo sapiens, UniProt P36544); assay: Agonist activity at α7 nAChR; assay type: cell-based
# Sequence of α7 nAChR (P36544 23-502): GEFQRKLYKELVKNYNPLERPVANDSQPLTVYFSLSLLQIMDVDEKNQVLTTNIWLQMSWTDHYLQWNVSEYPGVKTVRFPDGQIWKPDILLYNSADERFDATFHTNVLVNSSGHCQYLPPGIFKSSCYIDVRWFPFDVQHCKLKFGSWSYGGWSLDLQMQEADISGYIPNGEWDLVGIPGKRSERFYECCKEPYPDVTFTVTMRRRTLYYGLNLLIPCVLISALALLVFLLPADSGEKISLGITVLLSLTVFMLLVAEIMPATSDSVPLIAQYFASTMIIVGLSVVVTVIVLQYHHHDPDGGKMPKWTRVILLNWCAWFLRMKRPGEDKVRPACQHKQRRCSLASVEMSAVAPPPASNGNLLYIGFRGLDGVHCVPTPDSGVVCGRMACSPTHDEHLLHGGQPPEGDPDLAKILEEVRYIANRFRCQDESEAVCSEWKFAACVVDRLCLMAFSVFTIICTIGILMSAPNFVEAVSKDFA
# [4] = tested on: PSAM^4-GlyR-expressing layer 2/3 cortical neurons; assay type: cell-based, mice; details: varenicline 10 – 16 nM
# [5] = tested on: cultured hippocampal neurons expressing PSAM^4-GlyR; assay: Continuous silencing of cultured hippocampal neurons expressing PSAM4-GlyR; assay type: cell-based; details: varenicline 15 nM for 3 – 18 days
# [6] = tested on: PSAM^4-GlyR in GPi neurons; assay: In vivo electrophysiology of GPi neurons transduced with PSAM4-GlyR; set-up: species or system rhesus monkey; details: subcutaneous 0.1 mg/kg, versus varenicline prior to AAV transduction
# [7] = tested on: PSAM^4-GlyR in SNr GABAergic neurons; assay: Unilateral SNr silencing rotation assay in PSAM4-GlyR mice; assay type: in vivo
# α7^L131G-GlyR = assay: Membrane potential; assay type: cell-based; details: α7L131G-GlyR versus parent channel
# Food intake = assay type: in vivo, mice; details: elevated doses
# [8] = tested on: PSAM^4-5HT3 HC-expressing layer 2/3 cortical neurons; assay: Depolarization of layer 2/3 cortical neurons expressing PSAM4-5HT3 HC; details: varenicline 15 nM
# PSAM^4-5HT3 [9] = target: T1, PSAM^4-5HT3; assay: Electrophysiology of PSAM4-5HT3 currents; assay type: cell-based; details: off-rate
# [10] = cited from earlier work
# [11] = tested on: cultured hippocampal neuron expressing PSAM^4-5HT3; assay: Sustained depolarization of cultured hippocampal neurons by PSAM4-5HT3; details: continuous varenicline 15 nM exposure
# T1 sequence (P23979 242-489, form open): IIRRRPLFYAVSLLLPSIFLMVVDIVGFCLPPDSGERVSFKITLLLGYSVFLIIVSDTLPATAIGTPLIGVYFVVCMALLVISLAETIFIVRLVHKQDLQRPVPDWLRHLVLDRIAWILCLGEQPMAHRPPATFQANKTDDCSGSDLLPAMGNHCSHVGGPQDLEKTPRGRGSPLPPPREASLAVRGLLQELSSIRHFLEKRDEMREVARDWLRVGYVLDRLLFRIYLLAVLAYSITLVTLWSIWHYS
# T1 sequence (P36544 23-224 L131G/Q139L/Y217F, form open): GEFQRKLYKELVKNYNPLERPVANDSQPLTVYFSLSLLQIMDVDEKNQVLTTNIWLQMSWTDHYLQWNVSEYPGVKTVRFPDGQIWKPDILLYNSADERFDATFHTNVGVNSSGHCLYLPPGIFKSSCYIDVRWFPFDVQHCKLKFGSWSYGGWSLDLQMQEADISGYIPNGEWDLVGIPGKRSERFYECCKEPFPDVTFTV
compound,measurement,setting,value
"C[N+]1([O-])CCN(C2=Nc3cc(Cl)ccc3Nc3ccccc32)CC1 [CNO, clozapine-N-oxide]",PgP substrate,PgP,substrate for the P-glycoprotein efflux pump
"CC(=O)OCC[N+](C)(C)C [ACh, acetylcholine]",potency at PSAM4-5HT3,PSAM^4-5HT3 [1],low potencies
NCC(=O)O [glycine],response to glycine,[2],did not respond
C[N+](C)(C)CCO [choline],EC50,[3],128 ± 32 µM
same,potency at PSAM4-5HT3,PSAM^4-5HT3 [1],low potencies
CN1C2CCCC1CC(NC(=O)c1nn(C)c3ccccc13)C2 (centres unmarked) [granisetron],agonist activity at α7 nAChR,α7 nAChR,no agonist activity
c1cnc2cc3c(cc2n1)[C@@H]1CNC[C@H]3C1 [varenicline],increase of current amplitude required to fire an action potential (rheobase),[4],6 fold
same,suppression of firing,[4],strongly suppressed firing
same,reduction of input resistance,[4]; on average,3 fold
same,rheobase under constant exposure,[5],maintained elevated rheobase
same,GPi neuron firing rate and burst firing rate,[6],significantly inhibited
same,time for rotation activity to return nearly to baseline,[7]; intraperitoneal,~4 h
same,time to evident behavioral effects of silencing,[7]; intraperitoneal,≤ 20 min
same,lowest effective dose (LED),"[7]; intraperitoneal, onset of rotation, with amphetamine 3 mg/kg",0.1 mg/kg
same,circling after oral delivery,[7]; oral delivery 5 μg/mL,elicited circling
same,potency enhancement,α7^L131G-GlyR,17 fold
same,food intake,Food intake,reduced
same,depolarization,[8],+17.2 ± 2.4 mV
same,t-off1/2,PSAM^4-5HT3 [9],3.2 ± 1.3 min
same,PgP substrate,PgP,not a PgP substrate
same,brain penetrance,[10],excellent brain penetrance
same,duration of sustained depolarization,[11],14 to 22 days
CN1[C@@H]2CC[C@H]1C[C@@H](OC(=O)c1c[nH]c3ccccc13)C2 [tropisetron],potency enhancement,α7^L131G-GlyR,3 fold
